# Patent US9993570B2, “Radiolabeled tracers for poly (ADP-ribose) polymerase-1 (PARP-1), methods and uses therefor” (Washington University, priority 2014, dated 2018)
# Entries after “also recorded” stand apart in the source; their conditions may differ.
# Experiments:
# [1] = Estimated human dosimetry from mouse biodistribution study (MIRD)
# Description: Estimates were obtained from the organ residence times calculated from the mouse biodistribution data, shown in Table 1, using standard MIRD methodology.
# [2] = tested on: MDA-MB-231 tumors; test: microPET imaging with [18F]12, MDA-MB-231 tumors; format: in vivo, mice; settings: baseline, 60 minute dynamic scan
# Procedure: (§1) This example illustrates the visualization of tumor tissue in microPET in mice. MDA-MB-436 human breast cancer xenograft tumors in immune-deficient mice were visualized by PET using [^18F]12.
# (§2) Tumor-bearing mice were placed in an induction chamber containing ˜2% isoflurane/oxygen and then secured to a custom double bed for placement of tail vein catheters; anesthesia was maintained via nose-cone at ˜1% isoflurane/oxygen for the dynamic imaging procedure. The mice were injected with 150-200 μCi of [^18F]12 and scanned for 0-60 min using Focus 220 and Inveon PET/CT scanners. The standard uptake values (SUVs) were generated from manually drawn regions of interests for tumors and surrounding ‘background’ tissue. Visualization of specific uptake was determined by comparison of baseline scans with images acquired by tracer injection 20 minutes after pre-treatment with the blocking agents olaparib (50 mg/kg, IP) or 12 (1 mg/kg, IP).
# This example illustrates uptake of Compound 12 ([^18F]WC-4-138) in mice. Mature female athymic nude mice (Charles River Laboratories) were implanted with 10^6 SCC1 cells or 10^7 MDA-MB-231 cells into the mammary fat pads. Mice bearing SCC1 tumors were imaged at 5 weeks and mice bearing MDA-MB-231 cells were imaged at 2.5 weeks after implant. Mice were anesthetized with 2% isoflurane/oxygen and maintained at 1% isoflurane/oxygen via nose cone throughout the imaging procedure. Whole animal microCT images were acquired on an Inveon PET/CT scanner. The mice were injected via tail vein with 11.36±0.5 MBq (307±13 μCi) of [^18F]WC(4)-138 and underwent a 60 minute dynamic scan using Focus 220 or Inveon PET/CT scanners. The microPET and microCT images were coregistered using Integrated Research Workflow software (Siemens). Regions of interest were drawn over tumors to determine time activity curves. For drug treatment studies, animals reached intraperitoneal injections of 50 mg/kg olaparib or iniparib 30 minutes before imaging. Mice were imaged at baseline, or 30 minutes after IP injection of olaparib or iniparib. Arrows indicate location of tumors as identified on CT.
# In FIG. 8, mice were imaged at baseline, or 30 minutes after IP injection of olaparib or iniparib. (A) The percent of injected dose per ml was calculated for each MDA/MB-231 tumor at baseline or after drug treatment. […] Tracer uptake was unchanged in iniparib-treated mice (p=0.1098 as determined by a paired t test, n=6 tumors).
# [3] = tested on: MDA-MB-436 tumors; test: microPET imaging with [18F]12, MDA-MB-436 xenograft tumors; format: in vivo, mice; settings: baseline, 0-60 min post-tracer injection
# Procedure: as §1
# MDA-MB-436 and MDA-MB-231 human breast cancer cells were maintained in cell culture under standard conditions with 5% CO2 atmosphere using Eagle's minimum essential medium (with Earle's balanced salt solution and 2 mM L-glutamine) supplemented with 2 mM E-glutamine, 1 mM sodium pyruvate, 0.1 mM non-essential amino acids 2% vitamins for MEM, and 5% fetal bovine serum. Cells in exponential growth were trypsinized and harvested for tumor implantation. After counting, cells were re-suspended in ice-cold 1:1 Matrigel and PBS to give the desired concentration and held on ice.
# Mature female athymic nu/nu mice from Charles River Laboratories are allowed to acclimate in an AALAC accredited housing facility for at least 1 week prior to tumor implantation for these serial imaging studies. Female nu/nu mice were implanted in the mammary fat pads (near the auxiliary lymph nodes) with ˜8×10^6 MDA-MB-436 breast cancer cells in ˜100 μL of 1:1 Matrigel:PBS. Imaging studies were conducted 2-3 weeks post implantation.
# as §2
structure (smiles),measurement,setting,value
O=C1NCCn2c(-c3ccc(OCC[18F])cc3)nc3cccc1c32 [[^18F]12],"Estimated human dosimetry, Adrenals",[1]; Female,0.052 rad/mCi
same,"Estimated human dosimetry, Brain",[1]; Female,0.022 rad/mCi
same,"Estimated human dosimetry, Breasts",[1]; Female,0.019 rad/mCi
same,"Estimated human dosimetry, Effective Dose",[1]; Female,0.057 rem/mCi
same,"Estimated human dosimetry, Effective Dose Equivalent",[1]; Female,0.075 rad/mCi
same,"Estimated human dosimetry, Gallbladder Wall",[1]; Female,0.033 rad/mCi
same,"Estimated human dosimetry, Heart Wall",[1]; Female,0.047 rad/mCi
same,"Estimated human dosimetry, Kidneys",[1]; Female,0.093 rad/mCi
same,"Estimated human dosimetry, LLI Wall",[1]; Female,0.036 rad/mCi
same,"Estimated human dosimetry, Liver",[1]; Female,0.065 rad/mCi
same,"Estimated human dosimetry, Lungs",[1]; Female,0.045 rad/mCi
same,"Estimated human dosimetry, Muscle",[1]; Female,0.035 rad/mCi
same,"Estimated human dosimetry, Osteogenic Cells",[1]; Female,0.203 rad/mCi
same,"Estimated human dosimetry, Ovaries",[1]; Female,0.045 rad/mCi
same,"Estimated human dosimetry, Pancreas",[1]; Female,0.064 rad/mCi
same,"Estimated human dosimetry, Red Marrow",[1]; Female,0.069 rad/mCi
same,"Estimated human dosimetry, Skin",[1]; Female,0.019 rad/mCi
same,"Estimated human dosimetry, Small Intestine",[1]; Female,0.030 rad/mCi
same,"Estimated human dosimetry, Spleen",[1]; Female,0.133 rad/mCi
same,"Estimated human dosimetry, Stomach Wall",[1]; Female,0.030 rad/mCi
same,"Estimated human dosimetry, Thymus",[1]; Female,0.026 rad/mCi
same,"Estimated human dosimetry, Thyroid",[1]; Female,0.038 rad/mCi
same,"Estimated human dosimetry, Total Body",[1]; Female,0.039 rad/mCi
same,"Estimated human dosimetry, ULI Wall",[1]; Female,0.031 rad/mCi
same,"Estimated human dosimetry, Urinary Bladder Wall",[1]; Female,0.301 rad/mCi
same,"Estimated human dosimetry, Uterus",[1]; Female,0.053 rad/mCi
same,"Estimated human dosimetry, Adrenals",[1]; Male,0.043 rad/mCi
same,"Estimated human dosimetry, Brain",[1]; Male,0.019 rad/mCi
same,"Estimated human dosimetry, Effective Dose",[1]; Male,0.047 rem/mCi
same,"Estimated human dosimetry, Effective Dose Equivalent",[1]; Male,0.062 rad/mCi
same,"Estimated human dosimetry, Gallbladder Wall",[1]; Male,0.028 rad/mCi
same,"Estimated human dosimetry, Heart Wall",[1]; Male,0.038 rad/mCi
same,"Estimated human dosimetry, Kidneys",[1]; Male,0.083 rad/mCi
same,"Estimated human dosimetry, LLI Wall",[1]; Male,0.029 rad/mCi
same,"Estimated human dosimetry, Liver",[1]; Male,0.050 rad/mCi
same,"Estimated human dosimetry, Lungs",[1]; Male,0.035 rad/mCi
same,"Estimated human dosimetry, Muscle",[1]; Male,0.026 rad/mCi
same,"Estimated human dosimetry, Osteogenic Cells",[1]; Male,0.155 rad/mCi
same,"Estimated human dosimetry, Pancreas",[1]; Male,0.055 rad/mCi
same,"Estimated human dosimetry, Red Marrow",[1]; Male,0.061 rad/mCi
same,"Estimated human dosimetry, Skin",[1]; Male,0.016 rad/mCi
same,"Estimated human dosimetry, Small Intestine",[1]; Male,0.026 rad/mCi
same,"Estimated human dosimetry, Spleen",[1]; Male,0.110 rad/mCi
same,"Estimated human dosimetry, Stomach Wall",[1]; Male,0.024 rad/mCi
same,"Estimated human dosimetry, Testes",[1]; Male,0.022 rad/mCi
same,"Estimated human dosimetry, Thymus",[1]; Male,0.020 rad/mCi
same,"Estimated human dosimetry, Thyroid",[1]; Male,0.033 rad/mCi
same,"Estimated human dosimetry, Total Body",[1]; Male,0.031 rad/mCi
same,"Estimated human dosimetry, ULI Wall",[1]; Male,0.025 rad/mCi
same,"Estimated human dosimetry, Urinary Bladder Wall",[1]; Male,0.220 rad/mCi
same,tracer uptake in MDA-MB-231 tumors (microPET images),[2],abundantly taken up in tumors
same,[18F]12 uptake in MDA-MB-436 tumors (microPET),[3],increased uptake that was distinguishable from background; also recorded: progressively accumulated in the tumor; also recorded: accumulation of the radioactivity in these tumors
